Values of other authors, collected in patent US5346693A, “Depigmenting cosmetic or dermatological composition containing arbutoside derivatives” (L'Oreal, priority 1991, dated 1994).

Tested on: melanocyte

With `Oc1ccc(O)cc1` [hydroquinone] as the molecule, how does the “cytotoxicity to the melanocyte” value read?
Its value is “cytotoxic to the melanocyte”.
